Measured values published in US8790735B2, “Method of preferentially reducing absorption of saturated fat and compositions” (General Mills, Inc., priority 2005, dated 2014).
“Also recorded” adds a separate entry of the source.

Test system: Male Wistar rats
Test: Excretion of radiolabeled triolein and tripalmitin in rats fed test diets
Format: in vivo, rat
Protocol: As noted above, saturated fat is deemed to be complexed if at least about 5% of the available saturated fat is complexed. The amount of fat that is complexed is determined by conducting excretion studies as detailed below, and determining the amount of fat that is excreted as compared to a control sample not containing complexed fat. While some of the complexed fat may dissociate in the body, the excretion study will identify the minimum percentage of fat that is complexed.
• 13. Centrifuge the isolated aqueous layer from 11 above at 5000×g for 10 min. • 14. Filter 1 ml of the centrifuged sample supernatant with 0.45 micrometer nylon filter. Inject on to HPLC molecular sizing column. Quantify total cyclodextrin relative to a response factor developed from a standard curve of pure cyclodextrin. • 15. For Pure Fat Samples Only: Weigh remainder of supernatant sample into tared flask. Evaporate moisture to dryness. Record weight of solids. (note: net weight for non-salt containing fat samples will represent free alpha-cyclodextrin) • 16. Subtract free alpha-cyclodextrin amounts determined in 8 above from values determined in steps 15 and 16. Value equals total bound alpha-cyclodextrin. Experimental Design Male Wistar rats, 125-150 g in initial weight, 10 per group, were fed one of four diets. The diets were modifications of the AIN-93G diet [Reeves, PG (1997) Components of the AIN-93 Diets as Improvements in the AIN-76A Diet, J. Nutr. 127:838 S-841S], and thus was a purified diet. All diets were modified to contain 15% fat by weight, wherein the fat comprised 50% ^14C-triolein, an unsaturated fat that is a triglyceride of oleic acid, and 50% ^3H-tripalmitin, a saturated fat that is a triglyceride of palmitic acid. The diets were as follows:
Note that Diet 3 comprised the AIN-93G diet containing 5% α-cyclodextrin (replacing cellulose), which was added in the free unhydrated form as provided by the manufacturer (unhydrated ACD contains approximately 10% w/w moisture). Diet 4 comprised the AIN-93G diet containing 5% hydrated α-cyclodextrin (replacing cellulose), mixed with the radiolabeled fat prior to incorporation into the diet.
The animals were fed their respective diets for 7 days. A two day fecal fat collection was made during days 6 and 7 to allow for a conventional fecal fat determination (i.e. fat extraction with acidified chloroform:methanol). The animals were then fasted overnight, and presented with a 4 g meal of their respective diets containing ^14C-triolein and ^3H-tripalmitin incorporated into the diet. A fecal collection was begun four hours later, and continued until the animals were taken. Twelve hours later, the rats were killed and the small and large intestinal tracts removed. Contents of the stomach, small intestine, cecum, and colon as well as the small intestinal mucosa were collected and freeze-dried. […] After solubilization, the solution was neutralized with glacial acetic acid (to eliminate chemiluminescence), scintillation cocktail added, and the vials counted in a liquid scintillation counter using a dual label counting algorithm.
In this study, excretion is defined as all radiolabel present in the cecal contents, colon contents, and feces. Excretion is calculated in this manner as there is no absorption of triacylglycerols in the large intestine; thus, any radiolabel present in the cecal or colon contents cannot be absorbed and is thus destined to be excreted. […]

[1] = 5% in AIN-93G diet with 15% fat, fed 7 days, then 4 g radiolabeled meal, FIG. 1

For `OC[C@H]1O[C@@H]2O[C@H]3[C@H](O)[C@@H](O)[C@@H](O[C@H]4[C@H](O)[C@@H](O)[C@@H](O[C@H]5[C@H](O)[C@@H](O)[C@@H](O[C@H]6[C@H](O)[C@@H](O)[C@@H](O[C@H]7[C@H](O)[C@@H](O)[C@@H](O[C@H]1[C@H](O)[C@H]2O)O[C@@H]7CO)O[C@@H]6CO)O[C@@H]5CO)O[C@@H]4CO)O[C@@H]3CO` [α-cyclodextrin, alpha-cyclodextrin], the “triolein excretion (radiolabel in cecal contents, colon contents and feces)” value [1] was “no or only a modest effect”, the “tripalmitin excretion (radiolabel in cecal contents, colon contents and feces)” value [1] was “dramatically increased; also recorded: dramatic effect” and the “triolein excretion (radiolabel in cecal contents, colon contents and feces)” value (5% in AIN-93G diet with 15% fat, fed 7 days, then 4 g radiolabeled meal, FIG. 1, listed as α-Cyclodextrin) was “no affect”. The “ratio of excretion of tripalmitin to triolein” value (calculated from FIG. 1 values (radiolabel excreted as proportion of radiolabel consumed), FIG. 2) was “favored tripalmitin excretion” and the fat excretion (dietary, 5% in diet, rats) was “does indeed increase fat excretion”.
